The subject of series [1] is Jatropha curcas somatic embryos / somatic embryogenic calli. The following applies: TE7, AGL1 pST2eGFP.
Protocol: Embryogenic cell lines, for example, JS4 cell line, which was derived from a zygotic embryo of an Indonesian Jatropha curcas collection, were subcultured every week by transferring about 3 g of the cell mass to 20 ml J20P medium. 3-5 days after subculture, the embryogenic calli cell mass was collected.
Co-culture plates were made by pouring about 30 ml JIM2H solid medium to each 90 mm Petri dish. Alternatively, 3-4 sheets of cellulose filter paper can be soaked with JIM2H liquid medium before placing into a 90 mm Petri dish. One sheet of 82 mm Hybond N membrane was over-laid to the medium-soaked cellulose filter paper or solid JIM2H medium. About 0.75 g embryogenic calli was mixed with 200 ul Agrobacterium cells on the membrane. After one hour incubation at room temperature, excess liquid medium containing the Agrobacterium cells was removed. The plates were capped, sealed with 3M tape and incubated at 24° C. with dim light for 2-3 days.
Fresh colonies of AGL2 or AGL3 harboring pCambia1305.1 were inoculated into 30 ml LB medium that had been supplemented with 25 mg/l rifampicin and 50 mg/l kanamycin. Cells were cultured at 28° C., 200-230 RPM until OD600 reached 0.8-2.0. […]
In about 3 weeks, the embryos were transferred to G35-2 medium with 10 mg/l hygromycin. […] Rooted plantlets were ready for planting in soil in 2-3 weeks. […]
The subject of series [2] is Somatic embryogenic calli from 4 different cell lines. Particulars: DPI at about 10 μM; AGL2(pCambia1305.1); LMP Bd2 embedding; two months selection; average of four cell lines.
Protocol: The co-culture medium JIM2 was supplemented with either 1 μM diphenyl iodonium (DPI), 5 μM DPI or a mixture of antioxidants with a final concentration of 1 mM Na-thiosulfate, 8.8 mM L-cysteine and 1 mM dithiothreitol (DTT). Hygromycin resistant somatic embryos were scored after two months selection. The number of somatic embryos derived from co-culture with DPI-free JIM2 (CK) was set at 100 in each cell line and the relative number of somatic embryos in other co-culture conditions was calculated by dividing the actual number by that of CK.
Somatic embryogenic calli from 4 different cell lines were co-cultured with AGL2(pCambia1305.1) and selection was done by the LMP Bd2 embedding method. The co-culture medium JIM2 was supplemented with either 1 μM DPI, 5 μM DPI or a mixture of antioxidants with a final concentration of 1 mM Na-thiosulfate, 8.8 mM L-cysteine and 1 mM DTT. Hygromycin resistant somatic embryos were scored after two months selection. In transformation using each cell line, the number of somatic embryos derived from co-culture with DPI-free JIM2 (CK) was set at 100 and relative number of somatic embryos in other co-culture conditions was calculated by dividing the actual number by that of CK.
Series [3] concerns Soybean embryogenic suspension culture (derived Peking 18). The following applies: 1 μM DPI in co-culture medium; pre-induced AGL1(pCambia1305.1); 2.5 day at 24° C.; 10 mg/l hygromycin selection; control about 40%. Here is the method: Soybean embryogenic suspension culture (derived Peking 18) was co-cultured for 2.5 day at 24° C. with pre-induced AGL1(pCambia1305.1) on nylon membrane, which was placed on top of solid medium (1M with 20 mg/l 2,4-D and B5 vitamins) that was supplemented with 1 μM DPI or 1 mM Na-thiosulfate, 8.8 mM L-cysteine and 1 mM DTT. After selection with 10 mg/l hygromycin, the calli clumps were stained with X-gluc.

In series [4] the test system is Embryogenic calli. Kind of series: X-gluc staining of calli immediately after 53 hours co-culture. Format: cell-based, Jatropha curcas. Particulars: AS 200 μM, pCambia1305.1 bar. The source says:
The calli were immediately stained with X-gluc and photographed.
The calli were immediately stained with X-gluc.

The structures appear in SMILES notation.

On to `NC[C@H]1O[C@H](O[C@H]2[C@H](O)[C@@H](O[C@H]3O[C@H](CO)[C@@H](O)[C@H](N)[C@H]3O)[C@H](N)C[C@@H]2N)[C@H](O)[C@@H](O)[C@@H]1O` [Kan, kanamycin], for which the “Kan selection concentration found OK” value in series [1] (Kan 0, 25, 50 and 80 mg/l tested, SE on solid medium) is on record as 50-80 mg/l OK, heavy. `c1ccc2c(c1)[I+]c1ccccc1-2` [DPI, diphenylene iodonium]: the “Improvement of transformation efficiency (relative number of hygromycin resistant somatic embryos vs DPI-free JIM2)” value in series [2] is on record as “more than 2 folds”. Besides, in series [1] (liquid medium SE), the “Effect of DPI on explants” value was “DPI caused no damage on”. In series [3], the “calli clumps showing GUS staining” value was “more than 80%”. In the case of `COc1cc(C(C)=O)cc(OC)c1O` [AS, acetosyringone], the “Effect of AS on transformation efficiency in AGL2” value in series [4] is listed as “further boosted transformation efficiency”.

Values taken from patent US10167479B2, “Agrobacterium strains for plant transformation” (priority 2009, dated 2019).
